# Laboratory results from ChEMBL document CHEMBL5360570, “Discovery of pyrazolo[3,4-b]pyridine derivatives as novel and potent Mps1 inhibitors for the treatment of cancer” (Eur J Med Chem, 2023).
# pIC50: −log10 of the molar value.
# Tests used:
# [1] = target: Receptor-type tyrosine-protein kinase FLT3 (Homo sapiens) (UniProt P36888); experiment: Inhibition of FLT3 (unknown origin) assessed as residual activity at 1 uM relative to control
# MCF7 = experiment: Antiproliferative activity against human MCF7 cells assessed inhibition of cell growth incubated for 72 hrs by CCK-8 assay; assay type: functional, cell-based; conditions: MCF7, 72 h
# [2] = Antiproliferative activity against human RBE cells assessed inhibition of cell growth incubated for 72 hrs by CCK-8 assay; assay type: functional, cell-based
# [3] = Metabolic stability in human liver microsome assessed as parent compound remaining preincubated for 10 mins followed by NADPH addition and measured at 30 mins by LC-MS/MS analysis; assay type: ADME; conditions: liver microsomes, time 40 min, read-out: Stability
# ALK-TPM3 (Homo sapiens) = ALK-TPM3 (Homo sapiens) (UniProt Q9UM73+P06753); experiment: Inhibition of ALK-TPM3 (unknown origin) assessed as residual activity at 1 uM relative to control; assay type: protein assay
# [4] = target: T1, Dual specificity protein kinase TTK (Homo sapiens, UniProt P33981); experiment: Inhibition of Mps1 (unknown origin) pretreated for 10 mins followed by substrate addition and measured after 60 mins in presence of ATP by ADP-glo kinase assay
# T1 sequence (P33981 whole entry): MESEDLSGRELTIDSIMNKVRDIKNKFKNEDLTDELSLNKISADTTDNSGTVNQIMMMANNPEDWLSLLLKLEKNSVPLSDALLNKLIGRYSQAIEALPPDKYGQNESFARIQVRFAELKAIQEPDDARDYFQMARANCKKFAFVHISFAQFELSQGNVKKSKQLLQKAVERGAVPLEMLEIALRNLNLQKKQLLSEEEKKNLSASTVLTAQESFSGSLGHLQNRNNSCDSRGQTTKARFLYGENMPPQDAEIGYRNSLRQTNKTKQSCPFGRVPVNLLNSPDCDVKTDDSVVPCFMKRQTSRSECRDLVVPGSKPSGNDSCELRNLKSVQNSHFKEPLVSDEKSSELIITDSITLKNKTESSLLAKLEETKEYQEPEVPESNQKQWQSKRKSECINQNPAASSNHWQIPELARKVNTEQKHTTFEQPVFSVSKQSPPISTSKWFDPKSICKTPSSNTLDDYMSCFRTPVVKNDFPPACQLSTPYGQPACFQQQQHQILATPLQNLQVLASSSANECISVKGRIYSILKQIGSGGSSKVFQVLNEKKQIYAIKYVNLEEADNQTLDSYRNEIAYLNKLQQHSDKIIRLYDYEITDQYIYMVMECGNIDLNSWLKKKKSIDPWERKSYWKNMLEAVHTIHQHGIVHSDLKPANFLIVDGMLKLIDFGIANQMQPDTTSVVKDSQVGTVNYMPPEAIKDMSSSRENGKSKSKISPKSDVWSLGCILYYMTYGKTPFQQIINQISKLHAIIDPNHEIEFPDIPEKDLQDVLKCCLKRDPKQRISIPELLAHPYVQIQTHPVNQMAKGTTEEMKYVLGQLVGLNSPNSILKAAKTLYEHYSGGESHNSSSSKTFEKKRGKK
# [5] = test system: NPM/ALK (Nucleophosmin/ALK tyrosine kinase receptor) (Homo sapiens), Q9UM73+P06748 [F1174L]; experiment: Inhibition of ALK F1174L mutant (unknown origin)/NPM1 (unknown origin) assessed as residual activity at 1 uM relative to control; assay type: protein assay
# [6] = MRT (0 to t) in Sprague-Dawley rat at 10 mg/kg, po measured upto 24 hrs by LC-MS/MS analysis; assay type: ADME, organism-based; conditions: in vivo
# [7] = target: LIM domain kinase 1 (Homo sapiens) (UniProt P53667); experiment: Inhibition of LIMK1 (unknown origin) assessed as residual activity at 1 uM relative to control
# [8] = test system: ALK tyrosine kinase receptor (Homo sapiens), Q9UM73 [G1202R]; experiment: Inhibition of ALK G1202R mutant (unknown origin) assessed as residual activity at 1 uM relative to control
# [9] = C0 in Sprague-Dawley rat at 2 mg/kg, iv measured upto 24 hrs by LC-MS/MS analysis; assay type: ADME, organism-based; conditions: in vivo
# [10] = Clearance in Sprague-Dawley rat at 2 mg/kg, iv measured upto 24 hrs by LC-MS/MS analysis; assay type: ADME, organism-based; conditions: in vivo
# [11] = target: Tyrosine-protein kinase FRK (Homo sapiens) (UniProt P42685); experiment: Inhibition of PTK5 (unknown origin) assessed as residual activity at 1 uM relative to control
# [12] = test system: EML4-ALK (Homo sapiens), Q9UM73+Q9HC35 [F1174L]; experiment: Inhibition of ALK F1174L mutant (unknown origin)/EML4 (unknown origin) assessed as residual activity at 1 uM relative to control; assay type: protein assay
# [13] = test system: ALK tyrosine kinase receptor (Homo sapiens), Q9UM73 [R1275Q]; experiment: Inhibition of ALK R1275Q mutant (unknown origin) assessed as residual activity at 1 uM relative to control
# ROS1-GOPC (Homo sapiens) = ROS1-GOPC (Homo sapiens) (UniProt P08922+Q9HD26); experiment: Inhibition of ROS1-GOPC (unknown origin) assessed as residual activity at 1 uM relative to control; assay type: protein assay
# [14] = target: Non-receptor tyrosine-protein kinase TNK1 (Homo sapiens) (UniProt Q13470); experiment: Inhibition of TNK1 (unknown origin) assessed as residual activity at 1 uM relative to control
# [15] = target: MAP/microtubule affinity-regulating kinase 4 (Homo sapiens) (UniProt Q96L34); experiment: Inhibition of MARK4 (unknown origin) assessed as residual activity at 1 uM relative to control
# [16] = target: Mitogen-activated protein kinase kinase kinase 9 (Homo sapiens) (UniProt P80192); experiment: Inhibition of MLK1 (unknown origin) assessed as residual activity at 1 uM relative to control
# [17] = Metabolic stability in human liver microsome assessed as intrinsic clearance preincubated for 10 mins followed by NADPH addition and measured upto 60 mins by LC-MS/MS analysis; assay type: ADME; conditions: liver microsomes, time < 70 min, read-out: CLH
# [18] = test system: ALK tyrosine kinase receptor (Homo sapiens), Q9UM73 [C1156Y]; experiment: Inhibition of ALK C1156Y mutant (unknown origin) assessed as residual activity at 1 uM relative to control
# [19] = Oral bioavailability in Sprague-Dawley rat at 10 mg/kg measured upto 24 hrs by LC-MS/MS analysis; assay type: ADME, organism-based; conditions: in vivo
# [20] = Cmax in Sprague-Dawley rat at 2 mg/kg, iv measured upto 24 hrs by LC-MS/MS analysis; assay type: ADME, organism-based; set-up: time < 24 hrs, dose 2 mg/kg, route iv; conditions: in vivo
# [21] = MRT (0 to infinity) in Sprague-Dawley rat at 2 mg/kg, iv measured upto 24 hrs by LC-MS/MS analysis; assay type: ADME, organism-based; conditions: in vivo
# MDA-MB-468 = experiment: Antitumor activity against human MDA-MB-468 cells xenografted in BALB/c nude mouse assessed as tumor growth inhibition at 60 mg/kg, po administered once daily for 21 days; assay type: functional; conditions: MDA-MB-468, 504 h, time 21 day, read-out: TGI
# [22] = target: Epithelial discoidin domain-containing receptor 1 (Homo sapiens) (UniProt Q08345); experiment: Inhibition of DDR1 (unknown origin) assessed as residual activity at 1 uM relative to control
# [23] = Cmax in Sprague-Dawley rat at 10 mg/kg, po measured upto 24 hrs by LC-MS/MS analysis; assay type: ADME, organism-based; set-up: time < 24 hrs, dose 10 mg/kg, route po; conditions: in vivo
# ALK-TPM3 (Homo sapiens), sequence (P06753 whole entry, looked up): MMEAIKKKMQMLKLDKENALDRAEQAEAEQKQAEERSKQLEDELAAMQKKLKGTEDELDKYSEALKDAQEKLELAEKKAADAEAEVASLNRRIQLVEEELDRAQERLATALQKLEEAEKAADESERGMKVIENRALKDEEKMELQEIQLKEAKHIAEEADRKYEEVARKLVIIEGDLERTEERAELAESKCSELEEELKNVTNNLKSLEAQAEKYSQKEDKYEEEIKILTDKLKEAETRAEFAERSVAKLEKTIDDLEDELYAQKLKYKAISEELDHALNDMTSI
# ALK-TPM3 (Homo sapiens), sequence (Q9UM73 whole entry, looked up): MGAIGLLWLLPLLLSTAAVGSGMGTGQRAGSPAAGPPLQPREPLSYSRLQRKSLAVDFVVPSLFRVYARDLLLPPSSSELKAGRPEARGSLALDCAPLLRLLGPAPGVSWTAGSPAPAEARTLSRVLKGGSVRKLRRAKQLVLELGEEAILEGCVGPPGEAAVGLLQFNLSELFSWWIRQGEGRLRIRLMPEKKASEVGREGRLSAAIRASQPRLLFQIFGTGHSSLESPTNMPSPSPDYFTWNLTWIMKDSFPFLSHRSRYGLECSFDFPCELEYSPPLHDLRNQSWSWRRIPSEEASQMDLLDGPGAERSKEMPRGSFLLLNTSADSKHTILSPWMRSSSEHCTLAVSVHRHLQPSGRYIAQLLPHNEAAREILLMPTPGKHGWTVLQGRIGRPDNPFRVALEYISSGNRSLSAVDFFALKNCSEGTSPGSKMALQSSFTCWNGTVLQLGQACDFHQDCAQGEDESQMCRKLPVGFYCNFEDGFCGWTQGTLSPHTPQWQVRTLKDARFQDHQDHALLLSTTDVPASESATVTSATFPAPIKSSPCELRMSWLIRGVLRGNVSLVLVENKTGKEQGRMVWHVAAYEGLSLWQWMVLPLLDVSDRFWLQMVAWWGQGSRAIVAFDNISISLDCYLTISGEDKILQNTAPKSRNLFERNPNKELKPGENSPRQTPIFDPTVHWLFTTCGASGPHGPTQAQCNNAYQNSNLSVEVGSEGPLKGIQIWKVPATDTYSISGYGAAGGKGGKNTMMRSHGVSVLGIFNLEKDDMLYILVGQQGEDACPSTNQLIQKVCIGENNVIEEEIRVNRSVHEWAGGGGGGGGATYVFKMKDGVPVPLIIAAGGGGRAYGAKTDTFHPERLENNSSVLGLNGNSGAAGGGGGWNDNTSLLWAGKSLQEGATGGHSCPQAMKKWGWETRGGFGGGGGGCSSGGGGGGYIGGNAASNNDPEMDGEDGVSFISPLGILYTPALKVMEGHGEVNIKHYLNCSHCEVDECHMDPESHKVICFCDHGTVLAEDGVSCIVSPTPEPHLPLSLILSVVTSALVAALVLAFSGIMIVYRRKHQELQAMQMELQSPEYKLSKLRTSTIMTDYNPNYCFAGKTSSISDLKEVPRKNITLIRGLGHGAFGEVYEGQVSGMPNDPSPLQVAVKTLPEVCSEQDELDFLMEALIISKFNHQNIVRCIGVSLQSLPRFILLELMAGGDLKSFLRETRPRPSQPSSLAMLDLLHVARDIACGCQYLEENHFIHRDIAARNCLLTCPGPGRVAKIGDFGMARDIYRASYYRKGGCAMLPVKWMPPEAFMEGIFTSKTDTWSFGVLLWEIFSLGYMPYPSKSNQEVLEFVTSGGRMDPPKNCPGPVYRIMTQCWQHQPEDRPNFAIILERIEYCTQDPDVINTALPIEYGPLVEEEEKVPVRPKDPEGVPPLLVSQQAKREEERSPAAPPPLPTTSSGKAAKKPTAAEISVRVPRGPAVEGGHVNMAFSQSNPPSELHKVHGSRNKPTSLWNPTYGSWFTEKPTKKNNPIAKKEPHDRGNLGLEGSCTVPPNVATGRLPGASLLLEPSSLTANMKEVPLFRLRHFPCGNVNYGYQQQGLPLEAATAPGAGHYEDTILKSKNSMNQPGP
# ALK tyrosine kinase receptor (Homo sapiens), Q9UM73 [G1202R], sequence (Q9UM73 whole entry G1202R): as the sequence (Q9UM73 whole entry, looked up) above, with G1202R counted along it
# Non-receptor tyrosine-protein kinase TNK1 (Homo sapiens), sequence (Q13470 whole entry): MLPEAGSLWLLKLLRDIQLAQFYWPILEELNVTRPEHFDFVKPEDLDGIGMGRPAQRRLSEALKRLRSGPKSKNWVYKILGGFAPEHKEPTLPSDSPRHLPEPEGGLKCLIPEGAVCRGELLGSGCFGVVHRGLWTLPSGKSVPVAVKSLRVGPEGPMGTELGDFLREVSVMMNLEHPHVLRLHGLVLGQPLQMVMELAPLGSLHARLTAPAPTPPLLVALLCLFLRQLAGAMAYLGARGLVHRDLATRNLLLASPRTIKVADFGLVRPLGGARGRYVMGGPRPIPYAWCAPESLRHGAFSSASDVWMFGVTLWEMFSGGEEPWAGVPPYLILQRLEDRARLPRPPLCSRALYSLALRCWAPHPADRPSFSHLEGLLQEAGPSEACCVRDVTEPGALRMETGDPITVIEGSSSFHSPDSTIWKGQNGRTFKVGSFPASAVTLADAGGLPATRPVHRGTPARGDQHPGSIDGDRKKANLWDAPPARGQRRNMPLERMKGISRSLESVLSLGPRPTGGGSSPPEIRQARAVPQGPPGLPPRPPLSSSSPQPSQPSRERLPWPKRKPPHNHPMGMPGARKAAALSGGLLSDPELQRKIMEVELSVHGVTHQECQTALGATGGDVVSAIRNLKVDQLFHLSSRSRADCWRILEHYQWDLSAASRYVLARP
# Tyrosine-protein kinase FRK (Homo sapiens), sequence (P42685 whole entry): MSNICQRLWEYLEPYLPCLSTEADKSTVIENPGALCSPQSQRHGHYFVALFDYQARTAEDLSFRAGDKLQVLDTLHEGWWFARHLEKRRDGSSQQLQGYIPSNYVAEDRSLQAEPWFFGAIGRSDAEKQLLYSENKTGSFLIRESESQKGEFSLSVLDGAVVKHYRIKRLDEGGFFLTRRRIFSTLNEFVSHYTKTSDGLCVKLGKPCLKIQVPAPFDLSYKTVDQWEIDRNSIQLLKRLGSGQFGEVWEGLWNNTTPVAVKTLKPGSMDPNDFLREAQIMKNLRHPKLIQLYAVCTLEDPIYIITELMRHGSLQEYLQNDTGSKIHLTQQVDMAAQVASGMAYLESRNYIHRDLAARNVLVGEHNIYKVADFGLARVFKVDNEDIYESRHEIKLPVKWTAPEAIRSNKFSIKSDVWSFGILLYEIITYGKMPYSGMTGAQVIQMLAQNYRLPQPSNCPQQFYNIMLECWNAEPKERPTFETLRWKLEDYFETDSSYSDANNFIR
compound,measurement,setting,value
CCc1cccc(CC)c1N1CCn2cc(-c3nc(Nc4ccc(N5CCN(C(C)=O)CC5)cc4OC)nc4[nH]ncc34)cc2C1=O,Activity,[1],< 10%
same,pIC50,MCF7,< 5.00
same,pIC50,[2],< 5.00
same,remaining at 0.5 h,[3],48.7%
same,Activity,ALK-TPM3 (Homo sapiens),< 10%
same,pIC50,[4],8.59
same,Activity,[5],< 10%
same,MRT last at 24 h,[6],66.6 min
same,Activity,[7],< 10%
same,Activity,[8],< 10%
same,C0 at 24 h,[9],5240 ng/mL
same,clearance,[10],32 mL/min/kg
same,Activity,[11],< 10%
same,Activity,[12],< 10%
same,Activity,[13],< 10%
same,Activity,ROS1-GOPC (Homo sapiens),< 10%
same,Activity,[14],< 10%
same,Activity,[15],< 10%
same,Activity,[16],< 10%
same,CLint scaled,[17],33.5 mL/min/kg
same,Activity,[18],< 10%
same,bioavailability,[19],3.95%
same,Cmax,[20],2920 ng/mL
same,MRT inf,[21],21.2 min
same,inhibition in vivo at 60 mg/kg,MDA-MB-468,34%
same,Activity,[22],< 10%
same,Cmax,[23],160 ng/mL
